In patent publication US4101647A, “Oral dosage form for X-ray contrast media containing a pharmaceutically acceptable base and method of use thereof” (Schering Aktiengesellschaft, priority 1975, dated 1978):

What was measured:
[1] = Blood levels of contrast medium of four patient groups after oral administration (3 g, microcrystal suspension) with various additional treatments; conditions: sodium bicarbonate given orally with the contrast agent
Experimental: (§1) Suspension with Various Additional Treatments
(§2) III = 10 mg. of Metoclopramide i.v.; and
IV = g. of Sodium Bicarbonate)

clinical = conditions: human, in vivo, po
Experimental: as §1, §2
IV = g. of Sodium Bicarbonate)

[2] = human, in vivo
Experimental: as §1, §2
IV = g. of Sodium Bicarbonate)

half-life (clinical) [h] | Cmax (clinical; Cmax (maximum concentration in blood)) [µg/mL] | Tmax (clinical; time after administration at which the maximum blood level is attained) [h] | resorption half life [2] [h] | blood level within 30 minutes after ingestion, on the average, as % of the maximum value ([2]; 30 min) [%] | Cmax (% of dose in total blood volume) ([2]; po) | tmax (time of maximum blood level) ([2]; po) [h] | SMILES | effect of simultaneous oral administration on resorption of the contrast agent [1]
– | – | – | – | – | – | – | O=C(O)O [sodium bicarbonate] | accelerates resorption of the contrast agent in a statistically significant manner
2.3 ± 1.4 | 114 ± 45 | ≤ 0.9 | 0.3 ± 0.1 | 80 | 23 ± 8 % of Dose in Bl. Vol. | 2.2 ± 0.4 | CCN(C(=O)CCC(=O)O)c1c(I)cc(I)c(NC)c1I [succinic acid mono-2,4,6-triiodo-3-methylamino-N-ethylanilide] | –
